Data: patent publication US12692249B2, “WDR5 inhibitors and modulators” (Vanderbilt University, priority 2019, dated 2026)
pKi: −log10 of the molar value. Read-outs that look alike come from different tables or passages of the source.

Assays:
WDR5 = WDR5 (Homo sapiens, UniProt P61964); assay: TR-FRET competition binding assay, displacement of 10mer-Thr-FAM MLL peptide probe from His-tagged WDR5; details: WDR5-His tag (residues 24-334) 2 nM; 10mer-Thr-FAM 150 nM; 60 min, room temperature; read-out: Ki for Inhibition of WDR5 by TR-FRET assay
[1] = test system: MV4:11 human cancer cell lines; assay: Cellular viability / anti-proliferative assay, CellTiter-Glo, 5 day protocol; type: cell-based; details: Homo sapiens, MV4-11, 120 h, read-out: GI50 on cellular proliferation of MV4:11 human cancer cell lines
In short: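 MV-4-11 cells in IMDM with 10% FBS, 200 cells/well, exposed 5 days to 22 two-fold dilutions from 30 μM, final DMSO 0.3%. Viability read by CellTiter-Glo luminescence; GI50 from sigmoidal dose-response fit, mean of at least two replicates.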

[2] = MV4:11 cells, 5 day incubation, CellTiter-Glo, mean of at least two replicates

pKi (WDR5) | GI50 [1, 2] | Structure (SMILES) | GI50 [1]
> 10.70 | < 20 nM | COc1cc(C2CCN(C)CC2)c2nc(C)cc(N3CCc4c(cc(Cn5ccnc5)cc4-c4cn(C)nc4C(F)(F)F)C3=O)c2c1 [Example 157, 7-((1H-Imidazol-1-yl)methyl)-2-(6-methoxy-2-methyl-8-(1-methylpiperidin-4-yl)quinolin-4-yl)-5-(1-methyl-3-(trifluoromethyl)-1H-pyrazol-4-yl)-3,4-dihydroisoquinolin-1(2H)-one] | 
> 10.70 | 31 nM | CCc1cc(C(=O)Nc2ccncc2)c2nccc(N3CCc4c(cc(Cn5ccnc5)cc4-c4cn(C)nc4C(F)(F)F)C3=O)c2c1 [Example 158, 4-(7-((1H-Imidazol-1-yl)methyl)-5-(1-methyl-3-(trifluoromethyl)-1H-pyrazol-4-yl)-1-oxo-3,4-dihydroisoquinolin-2(1H)-yl)-6-ethyl-N-(pyridin-4-yl)quinoline-8-carboxamide] | 
> 10.70 | < 20 nM | CCc1cc(C(=O)Nc2ncco2)c2nccc(N3CCc4c(cc(Cn5ccnc5)cc4-c4cn(C)nc4C(F)(F)F)C3=O)c2c1 [Example 160, 4-(7-((1H-Imidazol-1-yl)methyl)-5-(1-methyl-3-(trifluoromethyl)-1H-pyrazol-4-yl)-1-oxo-3,4-dihydroisoquinolin-2(1H)-yl)-6-ethyl-N-(oxazol-2-yl)quinoline-8-carboxamide] | 
> 10.70 | < 20 nM | COc1cc(COC2CCN(C)CC2)c2nccc(N3CCc4c(cc(Cn5ccnc5)cc4-c4cn(C)nc4C(F)(F)F)C3=O)c2c1 [Example 169, 7-((1H-Imidazol-1-yl)methyl)-2-(6-methoxy-8-(((1-methylpiperidin-4-yl)oxy)methyl)quinolin-4-yl)-5-(1-methyl-3-(trifluoromethyl)-1H-pyrazol-4-yl)-3,4-dihydroisoquinolin-1(2H)-one] | 
> 10.70 | < 20 nM | CCc1cc(C(=O)NC2CCOCC2)c2nccc(N3CCc4c(cc(Cn5ccnc5)cc4-c4cn(C)nc4C(F)(F)F)C3=O)c2c1 [Example 171, 4-(7-((1H-Imidazol-1-yl)methyl)-5-(1-methyl-3-(trifluoromethyl)-1H-pyrazol-4-yl)-1-oxo-3,4-dihydroisoquinolin-2(1H)-yl)-6-ethyl-N-(tetrahydro-2H-pyran-4-yl)quinoline-8-carboxamide] | 
> 10.70 | < 20 nM | CCc1cc(C(=O)NC2CC2)c2nccc(N3CCc4c(cc(Cn5ccnc5)cc4-c4cn(C)nc4C(F)(F)F)C3=O)c2c1 [Example 172, 4-(7-((1H-Imidazol-1-yl)methyl)-5-(1-methyl-3-(trifluoromethyl)-1H-pyrazol-4-yl)-1-oxo-3,4-dihydroisoquinolin-2(1H)-yl)-N-cyclopropyl-6-ethylquinoline-8-carboxamide] | 
> 10.70 | < 20 nM | CCc1cc(C(=O)NCc2cnccn2)c2nccc(N3CCc4c(cc(Cn5ccnc5)cc4-c4cn(C)nc4C(F)(F)F)C3=O)c2c1 [Example 173, 4-(7-((1H-Imidazol-1-yl)methyl)-5-(1-methyl-3-(trifluoromethyl)-1H-pyrazol-4-yl)-1-oxo-3,4-dihydroisoquinolin-2(1H)-yl)-6-ethyl-N-(pyrazin-2-ylmethyl)quinoline-8-carboxamide] | 
> 10.70 | < 20 nM | COc1cc(C#N)c2nc(C)cc(N3CCc4c(cc(Cn5ccnc5)cc4-c4cn(C)nc4C(F)(F)F)C3=O)c2c1 [Example 175, 4-(7-((1H-Imidazol-1-yl)methyl)-5-(1-methyl-3-(trifluoromethyl)-1H-pyrazol-4-yl)-1-oxo-3,4-dihydroisoquinolin-2(1H)-yl)-6-methoxy-2-methylquinoline-8-carbonitrile] | 
> 10.70 | 33 nM | CCc1cc(OC(F)(F)F)c2nccc(N3CCc4c(cc(Cn5ccnc5)cc4-c4cn(C)nc4C(F)(F)F)C3=O)c2c1 [Example 176, 7-((1H-imidazol-1-yl)methyl)-2-(6-ethyl-8-(trifluoromethoxy)quinolin-4-yl)-5-(1-methyl-3-(trifluoromethyl)-1H-pyrazol-4-yl)-3,4-dihydroisoquinolin-1(2H)-one] | 
> 10.70 | 33 nM | CCc1cc(COC2CNC2)c2nccc(N3CCc4c(cc(Cn5ccnc5)cc4-c4cn(C)nc4C(F)(F)F)C3=O)c2c1 [Example 179, 7-((1H-Imidazol-1-yl)methyl)-2-(8-((azetidin-3-yloxy)methyl)-6-ethylquinolin-4-yl)-5-(1-methyl-3-(trifluoromethyl)-1H-pyrazol-4-yl)-3,4-dihydroisoquinolin-1(2H)-one] | 
10.40 | 856 nM | COc1cc(C(=O)NS(C)(=O)=O)c2nc(C)cc(N3CCc4c(cc(Cn5ccnc5)cc4-c4cn(C)nc4C(F)(F)F)C3=O)c2c1 [Example 181, 4-(7-((1H-Imidazol-1-yl)methyl)-5-(1-methyl-3-(trifluoromethyl)-1H-pyrazol-4-yl)-1-oxo-3,4-dihydroisoquinolin-2(1H)-yl)-6-methoxy-2-methyl-N-(methylsulfonyl)quinoline-8-carboxamide] | 
> 10.70 | < 20 nM | CCc1cc(COC2CCOCC2)c2nccc(N3CCc4c(cc(Cn5ccnc5)cc4-c4cn(C)nc4C(F)(F)F)C3=O)c2c1 [Example 182, 7-((1H-Imidazol-1-yl)methyl)-2-(6-ethyl-8-(((tetrahydro-2H-pyran-4-yl)oxy)methyl)quinolin-4-yl)-5-(1-methyl-3-(trifluoromethyl)-1H-pyrazol-4-yl)-3,4-dihydroisoquinolin-1(2H)-one] | 
> 10.70 | < 20 nM | CNC(=O)c1cc(OC)cc2c(N3CCc4c(cc(Cn5ccnc5)cc4-c4cn(C)nc4C(F)(F)F)C3=O)cc(C)nc12 [Example 183, 4-(7-((1H-Imidazol-1-yl)methyl)-5-(1-methyl-3-(trifluoromethyl)-1H-pyrazol-4-yl)-1-oxo-3,4-dihydroisoquinolin-2(1H)-yl)-6-methoxy-N,2-dimethylquinoline-8-carboxamide] | 
> 10.70 | 21 nM | COc1cc(C(=N)NO)c2nc(C)cc(N3CCc4c(cc(Cn5ccnc5)cc4-c4cn(C)nc4C(F)(F)F)C3=O)c2c1 [Example 184, 4-(7-((1H-Imidazol-1-yl)methyl)-5-(1-methyl-3-(trifluoromethyl)-1H-pyrazol-4-yl)-1-oxo-3,4-dihydroisoquinolin-2(1H)-yl)-N-hydroxy-6-methoxy-2-methylquinoline-8-carboximidamide] | 
> 10.70 | < 20 nM | CCc1cc(C(=O)NC2CCN(C)CC2)c2nccc(N3CCc4c(cc(Cn5ccnc5)cc4-c4cn(C)nc4C(F)(F)F)C3=O)c2c1 [Example 186, 4-(7-((1H-Imidazol-1-yl)methyl)-5-(1-methyl-3-(trifluoromethyl)-1H-pyrazol-4-yl)-1-oxo-3,4-dihydroisoquinolin-2(1H)-yl)-6-ethyl-N-(1-methylpiperidin-4-yl)quinoline-8-carboxamide] | 
> 10.70 | 43 nM | CCc1cc(COc2ccncc2)c2nccc(N3CCc4c(cc(Cn5ccnc5)cc4-c4cn(C)nc4C(F)(F)F)C3=O)c2c1 [Example 187, 7-((1H-Imidazol-1-yl)methyl)-2-(6-ethyl-8-((pyridin-4-yloxy)methyl)quinolin-4-yl)-5-(1-methyl-3-(trifluoromethyl)-1H-pyrazol-4-yl)-3,4-dihydroisoquinolin-1(2H)-one] | 
> 10.70 | < 20 nM | CCc1cc(COC)c2nccc(N3CCc4c(cc(Cn5ccnc5)cc4-c4cn(C)nc4C(F)(F)F)C3=O)c2c1 [Example 188, 7-((1H-Imidazol-1-yl)methyl)-2-(6-ethyl-8-(methoxymethyl)quinolin-4-yl)-5-(1-methyl-3-(trifluoromethyl)-1H-pyrazol-4-yl)-3,4-dihydroisoquinolin-1(2H)-one] | 
> 10.70 | < 20 nM | COc1cc(C(=O)NC2CCN(C)CC2)c2nc(C)cc(N3CCc4c(cc(Cn5ccnc5)cc4-c4cn(C)nc4C(F)(F)F)C3=O)c2c1 [Example 189, 4-(7-((1H-Imidazol-1-yl)methyl)-5-(1-methyl-3-(trifluoromethyl)-1H-pyrazol-4-yl)-1-oxo-3,4-dihydroisoquinolin-2(1H)-yl)-6-methoxy-2-methyl-N-(1-methylpiperidin-4-yl)quinoline-8-carboxamide] | 

Structure (SMILES) | pKi (WDR5) | GI50 [1, 2] | GI50 [1]
COc1cc(COC2CCC2)c2nccc(N3CCc4c(cc(Cn5ccnc5)cc4-c4cn(C)nc4C(F)(F)F)C3=O)c2c1 [Example 159, 7-((1H-Imidazol-1-yl)methyl)-2-(8-(cyclobutoxymethyl)-6-methoxyquinolin-4-yl)-5-(1-methyl-3-(trifluoromethyl)-1H-pyrazol-4-yl)-3,4-dihydroisoquinolin-1(2H)-one] | 10.57 | 159 nM | 
COc1cc(C2CCOCC2)c2nc(C)cc(N3CCc4c(cc(Cn5ccnc5)cc4-c4cn(C)nc4C(F)(F)F)C3=O)c2c1 [Example 165, 7-((1H-Imidazol-1-yl)methy)-2-(6-methoxy-2-methyl-8-(tetrahydro-2H-pyran-4-yl)quinolin-4-yl)-5-(1-methyl-3-(trifluoromethyl)-1H-pyrazol-4-yl)-3,4-dihydroisoquinolin-1(2H)-one] | 10.38 |  | 129 nM
COc1cc(COC2CC2)c2nccc(N3CCc4c(cc(Cn5ccnc5)cc4-c4cn(C)nc4C(F)(F)F)C3=O)c2c1 [Example 167, 7-((1H-Imidazol-1-yl)methyl)-2-(8-(cyclopropoxymethyl)-6-methoxyquinolin-4-yl)-5-(1-methyl-3-(trifluoromethyl)-1H-pyrazol-4-yl)-3,4-dihydroisoquinolin-1(2H)-one] | 10.47 |  | 106 nM
